For 14 compounds, TGI and GI50 results are on record in PubChem BioAssay (NCI).

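1) Cells in 96-well plates. 2) Compound, 48 h, 5 concentrations. 3) Linear interpolation between surrounding doses. 4) Unreached endpoint = highest concentration. The concentration for 50% growth inhibition is given as GI50. TGI is the concentration that stops growth completely.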

As a reminder, the TGI is the concentration giving total growth inhibition. The GI50 is the concentration giving 50% growth inhibition.

Test systems include HOP-92 NSCLC; T-47D breast; ACHN renal; K-562 leukemia; A549 NSCLC; U251 CNS; NCI-H460 lung; NCI/ADR-RES ovarian; KM12 colon; SNB-19 CNS; LOX IMVI melanoma; HT29 colon; NCI-H522 lung; EKVX NSCLC; A498 renal; RPMI-8226 leukemia; MDA-N.
Experiment in all cases: DTP human tumour cell line panel, 48 h

For the compound `Cc1ccc(S(=O)(=O)NC(=O)NCc2ccc(S(N)(=O)=O)cc2)cc1`, the TGI in the assay with HOP-92 NSCLC, in the assay on T-47D breast, with ACHN renal, in the assay on K-562 leukemia, in the assay with A549 NSCLC and with U251 CNS was over 100 µM each time. For the same compound, the total growth inhibition concentration (TGI) in the assay with NCI-H460 lung, in the assay with NCI/ADR-RES ovarian, with KM12 colon, in the assay on SNB-19 CNS, in the assay on LOX IMVI melanoma and with HT29 colon was over 100 µM in each case. Moreover, the TGI in the assay with NCI-H522 lung, in the assay on EKVX NSCLC, in the assay on A498 renal and with RPMI-8226 leukemia was over 100 µM each time.

With `CN(CCC(=O)N1CC(CCl)c2ccc([N+](=O)[O-])cc21)CCC(=O)N1CC(CCl)c2ccc([N+](=O)[O-])cc21` (stereo not given), the TGI in the assay with T-47D breast was over 100 µM; in the assay with ACHN renal it was 2.91 µM; in the assay on K-562 leukemia, 47.7 µM; in the assay with A549 NSCLC it was over 100 µM; in the assay on U251 CNS it was over 100 µM; in the assay with NCI-H460 lung, over 100 µM. Further, the TGI with KM12 colon was 18.3 µM; in the assay with SNB-19 CNS it was over 100 µM; in the assay with LOX IMVI melanoma it was 21.7 µM; in the assay with HT29 colon, 24 µM; with NCI-H522 lung, 21.7 µM; with EKVX NSCLC, 42.7 µM. In addition, the total growth inhibition concentration (TGI) in the assay on MDA-N turned out to be 30.9 µM; with A498 renal it was 35.3 µM; in the assay on RPMI-8226 leukemia it was 13.9 µM.

For `C=CC(C)(C)n1cc(C2=C3OC(=O)C(c4cn(C(C)(C)C=C)c5ccccc45)=C3OC2=O)c2ccccc21`, the total growth inhibition concentration (TGI) in the assay with HOP-92 NSCLC, in the assay with ACHN renal, with K-562 leukemia, in the assay on A549 NSCLC, in the assay on U251 CNS and with NCI-H460 lung was over 100 µM each time. Further, the TGI with NCI/ADR-RES ovarian, in the assay with KM12 colon, in the assay on SNB-19 CNS, with LOX IMVI melanoma, in the assay on HT29 colon and with NCI-H522 lung was over 100 µM in each case. Moreover, the TGI in the assay on EKVX NSCLC, in the assay on MDA-N, in the assay on A498 renal and in the assay with RPMI-8226 leukemia was over 100 µM in each case.

`O=C1Cc2c([nH]c3ccc(Br)cc23)-c2cc(Br)ccc2N1`: the TGI in the assay on HOP-92 NSCLC, with T-47D breast, with ACHN renal, in the assay on K-562 leukemia, with A549 NSCLC and with U251 CNS was over 100 µM in each case. Also, the TGI with NCI-H460 lung, in the assay on NCI/ADR-RES ovarian, in the assay on KM12 colon, in the assay with SNB-19 CNS, with LOX IMVI melanoma and in the assay with EKVX NSCLC was over 100 µM each time. Further, the TGI in the assay on A498 renal and in the assay with RPMI-8226 leukemia was over 100 µM in each case.

`CC(=O)OCC(OC(C)=O)C1C[C@H]2O[C@@H]3[C@H](C[C@H]2O1)O[C@@]1(C[C@@H]3C)C[C@H](C)[C@@H]2O[C@]3(C[C@@H]2O1)C[C@H]1O[C@H]2[C@H](C)[C@H]4OC(=O)C[C@H]5CC[C@@H]6OC7[C@H]8O[C@]9(CC[C@H]%10CC(=O)[C@H](CC[C@H]%11C[C@@H](C)C(=O)C(C[C@@H]4O[C@H]2C[C@H]1O3)O%11)O%10)CC8O[C@@H]7[C@@H](O9)[C@H]6O5` (stereo not given in full): the TGI in the assay on HOP-92 NSCLC, in the assay on ACHN renal, in the assay with K-562 leukemia, in the assay on A549 NSCLC, in the assay on U251 CNS and with NCI-H460 lung was over 1 µM each time. Also, the total growth inhibition concentration (TGI) with NCI/ADR-RES ovarian was over 0.566 µM; with KM12 colon, over 0.2 µM; in the assay on SNB-19 CNS, over 1 µM; with LOX IMVI melanoma, over 0.859 µM; with NCI-H522 lung it was 0.00322 µM; in the assay on EKVX NSCLC, over 1 µM. Also, the TGI in the assay with A498 renal was over 1 µM.

Regarding `CCOC(=O)/C(C#N)=C/Nc1c(C)n(C)n(-c2ccccc2)c1=O`, the total growth inhibition concentration (TGI) in the assay with HOP-92 NSCLC, in the assay with ACHN renal, in the assay with K-562 leukemia, with A549 NSCLC, in the assay on U251 CNS and in the assay with NCI/ADR-RES ovarian was over 100 µM each time. Also, the TGI with KM12 colon, in the assay on LOX IMVI melanoma, with NCI-H522 lung, in the assay on EKVX NSCLC, in the assay with MDA-N and in the assay with A498 renal was over 100 µM throughout. The compound also showed a TGI with RPMI-8226 leukemia of over 100 µM.

In the case of `COc1cc2c(cc1C)NC(=O)/C2=C/c1cccnc1`, the TGI in the assay with HOP-92 NSCLC is 41.9 µM; in the assay on T-47D breast it was 8.13 µM; in the assay on ACHN renal, over 56.8 µM; in the assay with K-562 leukemia, 40.2 µM; with A549 NSCLC it was over 55.3 µM; in the assay on U251 CNS, over 52.5 µM. The total growth inhibition concentration (TGI) is 35.4 µM in the assay on NCI-H460 lung; 42 µM in the assay with NCI/ADR-RES ovarian; 29.1 µM in the assay on KM12 colon; 32.1 µM in the assay with SNB-19 CNS; over 53.8 µM with LOX IMVI melanoma; over 100 µM in the assay with HT29 colon. Further, the TGI in the assay with NCI-H522 lung was found to be 33.4 µM; in the assay on EKVX NSCLC it was 47 µM; with A498 renal, 24.6 µM; in the assay with RPMI-8226 leukemia, 79.1 µM. For the same compound, the GI50 in the assay with RPMI-8226 leukemia was 12.7 µM.

Consider `CC1(n2nc(-c3ccccc3)n(-c3ccccc3)c2=O)CSC1`, for which the total growth inhibition concentration (TGI) in the assay with HOP-92 NSCLC, with ACHN renal, with K-562 leukemia, with A549 NSCLC, in the assay on U251 CNS and in the assay on NCI-H460 lung was over 100 µM each time. Besides, the TGI with KM12 colon, in the assay on SNB-19 CNS, in the assay on LOX IMVI melanoma, in the assay on HT29 colon, in the assay on NCI-H522 lung and with EKVX NSCLC was over 100 µM in each case. Besides, the TGI with A498 renal and in the assay with RPMI-8226 leukemia was over 100 µM throughout.

For `CN(C)P(=O)(/C(N)=N/Nc1ccc([N+](=O)[O-])cc1)N(C)C`, the TGI in the assay on HOP-92 NSCLC, in the assay with ACHN renal, with K-562 leukemia, with A549 NSCLC, in the assay on U251 CNS and in the assay with NCI-H460 lung was over 100 µM each time. In addition, the TGI in the assay on KM12 colon, in the assay on SNB-19 CNS, in the assay on LOX IMVI melanoma, with NCI-H522 lung, in the assay on EKVX NSCLC and in the assay on RPMI-8226 leukemia was over 100 µM in each case.

Consider `COC(=O)C1=CC2C(=O)c3ccccc3C1(c1ccccc1)N2C1CCCCC1` (stereo not given), for which the TGI was over 100 µM with HOP-92 NSCLC; over 100 µM in the assay on ACHN renal; over 100 µM with K-562 leukemia; over 100 µM in the assay on A549 NSCLC; 43.7 µM in the assay with U251 CNS; 40.6 µM in the assay on NCI-H460 lung. The concentration for total growth inhibition (TGI) in the assay with NCI/ADR-RES ovarian was over 100 µM; in the assay on KM12 colon it was 32.1 µM; in the assay on SNB-19 CNS, over 100 µM; with LOX IMVI melanoma, 52.3 µM; with HT29 colon it was over 100 µM; in the assay with NCI-H522 lung, 82.3 µM. Besides, the TGI with EKVX NSCLC, in the assay on MDA-N and with A498 renal was over 100 µM each time.

`O=C(CP(=O)(c1ccccc1)c1ccccc1)c1cccc(C(=O)CP(=O)(c2ccccc2)c2ccccc2)c1`: the TGI in the assay with T-47D breast, with ACHN renal, in the assay with K-562 leukemia, in the assay with A549 NSCLC, with NCI-H460 lung and with NCI/ADR-RES ovarian was over 100 µM throughout. The TGI in the assay on KM12 colon, in the assay with SNB-19 CNS, with HT29 colon, with EKVX NSCLC and with RPMI-8226 leukemia was over 100 µM each time.

`COc1cc2c(/C=C3/C(=O)Nc4ccc(O)cc43)c(Cl)n(Cc3ccccc3)c2cc1C`: the TGI is over 78.3 µM with HOP-92 NSCLC; over 74.8 µM in the assay on T-47D breast; 35.3 µM in the assay with ACHN renal; over 100 µM with K-562 leukemia; over 100 µM in the assay with A549 NSCLC; over 42.4 µM in the assay on U251 CNS. Besides, the TGI in the assay with NCI-H460 lung is over 43.4 µM; with NCI/ADR-RES ovarian it was 2.6 µM; in the assay on KM12 colon, 1.35 µM; in the assay on SNB-19 CNS it was 18.3 µM; in the assay with LOX IMVI melanoma, 24.9 µM; in the assay with HT29 colon it was 3.96 µM. The values for the TGI in the assay on EKVX NSCLC, in the assay with A498 renal and with RPMI-8226 leukemia were over 100 µM, over 100 µM and 6.74 µM, respectively. The GI50 in the assay on A498 renal was 6.26 µM.

With `Cc1noc(C)c1CCCOC1COc2ccccc2OCCOCCOc2ccccc2OC1`, the TGI in the assay on ACHN renal, in the assay with K-562 leukemia, with A549 NSCLC, in the assay with U251 CNS, with KM12 colon and with SNB-19 CNS was over 100 µM throughout. The TGI in the assay on LOX IMVI melanoma, in the assay on HT29 colon, in the assay on NCI-H522 lung, in the assay with EKVX NSCLC and in the assay with A498 renal was over 100 µM throughout.

Regarding `COc1ccc(N2C(=O)C3c4[nH]c5ccc(C)cc5c4C4CCC(C(C)(C)C)CC4C3C2=O)cc1` (stereo not given), the TGI with T-47D breast is over 100 µM; in the assay on ACHN renal, 25.5 µM; in the assay on K-562 leukemia it was 41.2 µM; in the assay with A549 NSCLC it was over 100 µM; with NCI-H460 lung it was 49.3 µM; in the assay on NCI/ADR-RES ovarian it was 33.2 µM. The TGI in the assay on KM12 colon was over 100 µM; with SNB-19 CNS, 62.6 µM; in the assay on HT29 colon, over 100 µM; in the assay on NCI-H522 lung it was over 100 µM; in the assay with EKVX NSCLC it was over 100 µM; in the assay on RPMI-8226 leukemia, 82.1 µM.
